Patent US11040028B2, “Penicinotam derivative, preparation method and use thereof” (OCEAN UNIVERSITY OF CHINA, priority 2017, dated 2021)

Legend:
Type in all cases: cell-based
[1] = tested on: cardiac fibroblast RAT-iCell-C002; assay: Anti-fibrosis activity test: inhibition of proliferation of cardiac fibroblast RAT-iCell-C002 (CCK-8); settings: Cardiac fibroblast, 48 h, cardiac fibroblast RAT-iCell-C002, CCK-8, 48 hours
Procedure, shortened: (§1)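 Exponentially growing cells, 2×10^4 cells/mL, attached 24 h. Dosed 48 h across concentrations (n=3). CCK-8 2 h → A450; IR vs blank; IC50.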

BHK-21 cells = assay: Anti-fibrosis activity test: inhibition of BHK-21 cell proliferation (CCK-8); settings: Mesocricetus auratus, BHK-21, 48 h, CCK-8, 48 hours after administration
Procedure, shortened: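 Cells plated 2×10^4 cells/mL; 24 h attach; compound dilutions, triplicate, 48 h, 37° C/5% CO2; CCK-8 2 h; A450; IR = (1−Ai/Ao)×100%; IC50 by curve fit.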

[2] = tested on: human fibrosarcoma cells HT-1080; assay: Anti-fibrosis activity test: inhibition of proliferation of human fibrosarcoma cells HT-1080 (CCK-8); settings: Homo sapiens, HT-1080, 48 h, human fibrosarcoma cells HT-1080, CCK-8, 48 hours
Procedure, shortened: as §1

[3] = tested on: human dermal fibroblasts CCC-ESF-1; assay: Anti-fibrosis activity test: inhibition of proliferation of human dermal fibroblasts CCC-ESF-1 (CCK-8); settings: Fibroblast; human dermal fibroblasts CCC-ESF-1, CCK-8, 48 hours
Procedure, shortened: as §1

[4] = tested on: mouse macrophages (RAW264.7); assay: Lipopolysaccharide-induced NO secretion in macrophages (Griess); settings: Mus musculus, RAW264.7, 24 h, RAW264.7, LPS 1 μg/ml, a/b isomers given as first/second symbol, read-out: IC50 (μM), inhibition of lipopolysaccharide-induced NO secretion in macrophages
Procedure, shortened: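 RAW264.7 cells in DMEM with 10% FBS were treated with test compounds at several concentrations, then stimulated with LPS (1 μg/ml) for 24 hours. Nitrite in the supernatant was measured by Griess reaction at 548 nm, and percent inhibition was calculated against blank-medium controls.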

NF-κB = assay: Immunological activity test: inhibition of NF-κB activity; settings: initial concentration of 30 μM; a/b isomers given as first/second symbol; read-out: IC50 (μM), inhibitory activity against NF-κB
Procedure, shortened: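 IC50 values come from further analysis of the data after an initial test at a single 30 μM concentration. Parthenolide served as the reference inhibitor.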

[5] = tested on: human hepatic stellate cells LX-2; assay: Anti-fibrosis activity test: inhibition of proliferation of human hepatic stellate cells LX-2 (CCK-8); settings: Homo sapiens, 48 h, human hepatic stellate cells LX-2, CCK-8, 48 hours
Procedure, shortened: as §1

[6] = tested on: human lung fibroblasts HFL1; assay: Anti-fibrosis activity test: inhibition of proliferation of human lung fibroblasts HFL1 (CCK-8); settings: Homo sapiens, HFL1, 48 h, human lung fibroblasts HFL1, CCK-8, 48 hours
Procedure, shortened: as §1

[7] = tested on: human embryonic lung fibroblast IMR-90; assay: Anti-fibrosis activity test: inhibition of proliferation of human embryonic lung fibroblast IMR-90 (CCK-8); settings: human embryonic lung fibroblast IMR-90, CCK-8, 48 hours
Procedure, shortened: as §1

Compound	IC50 [2] [mM]	IC50 [4] [µM]	IC50 (NF-κB) [µM]	IC50 [1] [mM]	IC50 (BHK-21 cells) [mM]	IC50 [3] [mM]	IC50 [5] [mM]	IC50 [6] [mM]	IC50 [7] [mM]
C#CCOc1c2c(nc3ccccc13)-c1cccn1C2=O [Compound 7b, 9-(prop-2-yn-1-yloxy)-10H-pyrrolizino[1,2-b]quinolin-10-one]	0.05 to 5	0.1 to 1	1 to 10	0.05 to 5	0.05 to 5	< 0.05	0.05 to 5	0.05 to 5	0.05 to 5
O=C1c2c(nc3ccccc3c2OCCO)-c2cccn21 [Compound 11b, 9-(2-hydroxyethoxy)-10H-pyrrolizino[1,2-b]quinolin-10-one]	0.05 to 5	1 to 10	1 to 10	0.05 to 5	0.05 to 5	0.05 to 5	0.05 to 5	0.05 to 5	0.05 to 5
O=C1c2c(nc3ccccc3c2OCCCO)-c2cccn21 [Compound 16b, 9-(3-hydroxypropoxy)-10H-pyrrolizino[1,2-b]quinolin-10-one]	0.05 to 5	1 to 10	1 to 10	0.05 to 5	0.05 to 5	0.05 to 5	0.05 to 5	0.05 to 5	0.05 to 5
O=C(Cn1c2c(c(=O)c3ccccc31)C(=O)n1cccc1-2)c1ccc(-c2ccccc2)cc1 [Compound 50a, 4-(2-([1,1′-Biphenyl]-4-yl)-2-oxoethyl)-9H-pyrrolizino[1,2-b]quinoline-9,10(4H)-dione]	0.05 to 5	1 to 10	1 to 10	5 to 20	0.05 to 5	0.05 to 5	5 to 20	0.05 to 5	5 to 20
O=C(COc1c2c(nc3ccccc13)-c1cccn1C2=O)c1ccc(-c2ccccc2)cc1 [Compound 50b, 9-(2-([1,1′-biphenyl]-4-yl)-2-oxoethoxy)-10H-pyrrolizino[1,2-b]quinolin-10-one]	0.05 to 5	1 to 10	1 to 10	5 to 20	0.05 to 5	< 0.05	5 to 20	0.05 to 5	5 to 20
O=C(O)c1ccccc1-c1ccc(Cn2c3c(c(=O)c4ccccc42)C(=O)n2cccc2-3)cc1 [Compound 81a, 4′-((9,10-Dioxo-9H-pyrrolizino[1,2-b]quinolin-4(10H)-yl)methyl)-[1,1′-biphenyl]-2-carboxylic acid]	0.05 to 5	1 to 10	1 to 10	0.05 to 5	< 0.05	0.05 to 5	< 0.05	0.05 to 5	< 0.05
O=C(O)c1ccccc1-c1ccc(COc2c3c(nc4ccccc24)-c2cccn2C3=O)cc1 [Compound 81b, 4′-(((10-oxo-10H-pyrrolizino[1,2-b]quinolin-9-yl)oxy)methyl)-[1,1′-biphenyl]-2-carboxylic acid]	0.05 to 5	1 to 10	1 to 10	0.05 to 5	0.05 to 5	0.05 to 5	< 0.05	0.05 to 5	0.05 to 5
O=C(COc1c2c(nc3ccccc13)-c1cccn1C2=O)c1ccc(Cl)cc1 [Compound 90b, 9-(2-(4-chlorophenyl)-2-oxoethoxy)-10H-pyrrolizino[1,2-b]quinolin-10-one]	5 to 20	0.1 to 1	1 to 10	0.05 to 5	0.05 to 5	0.05 to 5	0.05 to 5	0.05 to 5	0.05 to 5
O=C(COc1c2c(nc3ccccc13)-c1cccn1C2=O)c1ccc(C(F)(F)F)cc1 [Compound 91b, 9-(2-oxo-2-(4-(trifluoromethyl)phenyl)ethoxy)-10H-pyrrolizino[1,2-b]quinolin-10-one]	0.05 to 5	0.1 to 1	1 to 10	0.05 to 5	0.05 to 5	0.05 to 5	5 to 20	< 0.05	0.05 to 5
O=C(Oc1c2c(nc3ccccc13)-c1cccn1C2=O)c1ccco1 [Compound 95b, 10-oxo-10H-pyrrolizino[1,2-b]quinolin-9-ylfuran-2-carboxylate]	0.05 to 5	1 to 10	1 to 10	0.05 to 5	0.05 to 5	0.05 to 5	< 0.05	0.05 to 5	0.05 to 5

The next lines start with results.

IC50 [2] [mM]	IC50 [4] [µM]	IC50 (NF-κB) [µM]	Compound	IC50 [1] [mM]	IC50 (BHK-21 cells) [mM]	IC50 [3] [mM]	IC50 [5] [mM]	IC50 [6] [mM]	IC50 [7] [mM]
0.05 to 5	0.1 to 1	1 to 10	C#CCn1c2c(c(=O)c3ccccc31)C(=O)n1cccc1-2 [Compound 7a, 4-(Prop-2-yn-1-yl)-9H-pyrrolizino[1,2-b]quinoline-9,10(4H)-dione]	0.05 to 5	< 0.05	< 0.05	0.05 to 5	0.05 to 5	0.05 to 5
0.05 to 5	1 to 10	1 to 10	O=C1c2c(n(CCO)c3ccccc3c2=O)-c2cccn21 [Compound 11a, 4-(2-Hydroxyethyl)-9H-pyrrolizino[1,2-b]quinoline-9,10(4H)-dione]	0.05 to 5	0.05 to 5	0.05 to 5	0.05 to 5	0.05 to 5	0.05 to 5
0.05 to 5	1 to 10	1 to 10	CN(C)CCn1c2c(c(=O)c3ccccc31)C(=O)n1cccc1-2 [Compound 12a, 4-(2-(Dimethylamino)ethyl)-9H-pyrrolizino[1,2-b]quinoline-9,10(4H)-dione]	0.05 to 5	0.05 to 5	0.05 to 5	0.05 to 5	0.05 to 5	0.05 to 5
0.05 to 5	1 to 10	1 to 10	CN(C)CCOc1c2c(nc3ccccc13)-c1cccn1C2=O [Compound 12b, 9-(2-(dimethylamino)ethoxy)-10H-pyrrolizino[1,2-b]quinolin-10-one]	0.05 to 5	0.05 to 5	0.05 to 5	0.05 to 5	0.05 to 5	0.05 to 5
0.05 to 5	1 to 10	1 to 10	O=C1c2c(n(CCCO)c3ccccc3c2=O)-c2cccn21 [Compound 16a, 4-(3-Hydroxypropyl)-9H-pyrrolizino[1,2-b]quinoline-9,10(4H)-dione]	0.05 to 5	0.05 to 5	0.05 to 5	0.05 to 5	0.05 to 5	0.05 to 5
0.05 to 5	0.1 to 1	1 to 10	O=C(Cn1c2c(c(=O)c3ccccc31)C(=O)n1cccc1-2)c1ccc(Cl)cc1 [Compound 90a, 4-(2-(4-Chlorophenyl)-2-oxoethyl)-9H-pyrrolizino[1,2-b]quinoline-9,10(4H)-dione]	0.05 to 5	0.05 to 5	0.05 to 5	< 0.05	0.05 to 5	0.05 to 5
< 0.05	1 to 10	1 to 10	O=C1c2c(n(C(=O)c3ccco3)c3ccccc3c2=O)-c2cccn21 [Compound 95a, 4-(Furan-2-carbonyl)-9H-pyrrolizino[1,2-b]quinoline-9,10(4H)-dione]	0.05 to 5	0.05 to 5	0.05 to 5	< 0.05	0.05 to 5	< 0.05
